Patent EP0031801A2, “6-Substituted 4-(2',3'-dichlorophenyl)-2-methyl-1,4-dihydropyridine-3,5-dicarboxylic acid diesters having hypotensive properties as well as process for their preparation and pharmaceutical preparations containing same” (priority 1979, dated 1981)

Key:
[1] = test system: isolated portal vein preparation / paced isolated papillary heart muscle preparation; assay: Specificity towards smooth muscle relaxation: isolated portal vein versus paced papillary heart muscle in an organ bath; parameters: species or system Wistar rats; conditions: "separation" value: averaged difference of -log ED50 portal vein (vasodilatation) and -log ED50 papillary muscle (myocardial depression), transformed into numeric format
Description: The specificity towards smooth muscle relaxation was examined as follows: The isolated portal vein preparation of Wistar rats was mounted in an organ bath together with a paced isolated papillary heart muscle preparation of the same animal. The integrated contractile activity of the portal vein smooth muscle and the peak force amplitude of the papillary, myocardial, preparation were recorded. The respective activities during a 30 min control period were set as 100 per cent and the ensuing activities under the influence of an agent under study were expressed as a percentage thereof. The agent was administered at 10 min intervals and the potency for vasodilatation(-log ED50 of-portal vein) and that of myocardial depression (-log ED50 of papillary muscle) were determined by interpolation from the concentration-effect relationships determined in each experiment. A "separation" value was determined for each compound by averaging the differences of the -log ED50 values for vasodilatation and myocardial depression, respectively, obtained in the experiments. This logarithmic separation value was transformed into numeric format and entered into table 2.

[2] = test system: spontaneously hypertensive rats (SHR) of the Okamoto strain; assay: Antihypertensive effect in conscious, unrestrained spontaneously hypertensive rats, oral dosing; assay type: in vivo; conditions: Rattus norvegicus; dose giving 20 per cent reduction of mean arterial BP, by interpolation; oral intubation, cumulated doses at 2 hour intervals, suspended in methocel solution
Description: The antihypertensive effect of the compounds was tested in conscious, unrestrained spontaneously hypertensive rats (SHR) of the Okamoto strain. The animals had been prepared by prior implantation of indwelling catheters in the abdominal aorta via the femoral artery. Mean arterial blood pressure (MABP) and heart rate were continuously monitored. After a 2 hour control period the compound under study was administered by oral intubation at 2 hour intervals, suspended in methocel solution (5 ml/kg bodyweight). The cumulated doses were […] bodyweight. The antihypertensive response, i.e. the BP reduction to each dose, was expressed as a percentage of the initial control BP level and plotted against the dose on a logarithmic scale. The dose which would give 20 per cent BP reduction was then determined by interpolation.

With CCOC(=O)C1=C(COC)NC(C)=C(C(=O)OC)C1c1cccc(Cl)c1Cl (stereo not drawn) [Example 2, 2-methoxymethyl-4-(2,3-dichlorophenyl)-6-methyl-1,4-dihydropyridine-3,5-dicarboxylic acid-3-ethylester-5-methylester] the Ratio heart vasc. [1] was 158 and the ED20 [2] was 2 µmol/kg.

With COC(=O)C1=C(C)NC(C)=C(C(=O)OC)C1c1ccccc1[N+](=O)[O-] [Nifedipin, 2,6-dimethyl-4-(2-nitrophenyl)-1,4-dihydropyridine-3,5-dicarboxylic acid-3,5-dimethylester, reference compound] the Ratio heart vasc. [1] was 15 and the ED20 [2] was 5 µmol/kg.

Work on CCOC(=O)C1=C(C(C)C)NC(C)=C(C(=O)OC)C1c1cccc(Cl)c1Cl (stereo not drawn) [Example 1, 2-isopropyl-4-(2,3-dichlorophenyl)-6-methyl-1,4-dihydropyridine-3,5-dicarboxylic acid-3-ethylester-5-methylester] yielded a Ratio heart vasc. [1] of 98 and an ED20 [2] of 2.5 µmol/kg.
